Source: patent US10793599B2, “MPHOSPH1-derived peptide, and vaccine including same” (OncoTherapy Science, Inc., priority 2015, dated 2020)
Entries after “also recorded” stand apart in the source; their conditions may differ.

Legend:
peptide-pulsed C1R-A33 [1] = test: IFN-gamma ELISA of CTL lines and CTL clones (HLA-A*33:03); type: cell-based, human; conditions: listed as MPHOSPH1-A33-9-608
Description: (§1) CTLs were propagated using methods similar to those reported by Riddell et al. (Walter E A et al., N Engl J Med 1995, 333(16): 1038-44; Riddell S R et al., Nat Med 1996, 2(2): 216-23). The CTLs were cultured in 25 ml 5% ABS/AIM-V medium together with two types of Mitomycin C-treated human B lymphoblastoid cell lines (5×10^6 cells/25 ml medium each) and an anti-CD3 antibody (final concentration: 40 ng/ml). On the day after beginning of the culturing, IL-2 (final concentration: 120 IU/ml) was added to the culture. On days 5, 8 and 11, the medium was changed to a 5% ABS/AIM-V medium containing IL-2 (final concentration: 30 IU/ml) (Tanaka H et al., Br J Cancer 2001, 84(1): 94-9; Umano Y et al., Br J Cancer 2001, 84(8): 1052-7; Uchida N et al., Clin Cancer Res 2004, 10(24): 8577-86; Suda T et al., Cancer Sci 2006, 97(5): 411-9; Watanabe T et al., Cancer Sci 2005, 96(8): 498-506).
After induction of CTLs in vitro, the CTLs were seeded onto 96 round-bottomed microtiter plates (Nalge Nunc International) at 1 cell/well or 10 cells/well. The CTLs were cultured with two types of Mitomycin C-treated human B lymphoblastoid cell lines (1×10^4 cells/well each) in a total of 150 micro-l/well 5% ABS/AIM-V medium with an anti-CD3 antibody (final concentration: 30 ng/ml) and IL-2 (final concentration: 125 IU/ml). Ten days later, 50 micro-l 5% ABS/AIM-V medium containing 500 IU/ml IL-2 was added to the culture.
(§2) Peptide-pulsed C1R-A33 (1×10^4 cells/well) was prepared as the target cell. The IFN-gamma ELISPOT assay and IFN-gamma ELISA assay were performed according to the assay kit manufacturer's manual.

[2] = test system: COS7 cells expressing MPHOSPH1 and HLA-A*33:03; test: IFN-gamma production of CTL clone against target cells expressing MPHOSPH1 and HLA-A*33:03; type: cell-based, African green monkey
Description: as §2
A cDNA encoding the MPHOSPH1 or HLA-A*33:03 gene was amplified by PCR. The PCR-amplified product was each incorporated into an expression vector. Either or both of the MPHOSPH1 gene-expressing vector and the HLA-A*33:03 gene-expressing vector were introduced into COS7, which is a cell line negative for HLA, using Lipofectamine 2000 (Invitrogen). On the day after gene introduction, COS7 cells were detached and harvested using versene (Invitrogen), and used as the target cell for confirmation of IFN-gamma production (5×10^4 cells/well).

peptide-pulsed C1R-A33 [3] = test: In vitro CTL induction, IFN-gamma ELISPOT assay (HLA-A*33:03); type: cell-based, human; conditions: CD8 positive T cells of HLA-A*33:03-positive donors after three stimulations with peptide-pulsed DCs; against peptide-pulsed C1R-A33; listed as MPHOSPH1-A33-9-608
Description: (§3) Monocyte-derived dendritic cells (DCs) were used as the antigen-presenting cell to induce a specific cytotoxic T lymphocyte (CTL) response against peptides presented on human leukocyte antigens (HLAs). As already reported in literatures, DCs were generated in vitro (Nakahara S et al., Cancer Res 2003, 63(14): 4112-8). Specifically, peripheral-blood mononuclear cells (PBMCs) collected from healthy volunteers (HLA-A*33:03-positive) with the Ficoll-Paque plus solution (Pharmacia) were seeded in plastic tissue culture dishes (Corning) to let the monocytes in the PBMCs adhere to the dishes. This was cultured in the presence of 1000 IU/ml granulocyte macrophage colony-stimulating factor (R&D System) and 1000 IU/ml interleukin (IL)-4 (R&D System) for seven days. An AIM-V medium (Invitrogen) containing 5% inactivated AB-type serum (ABS) was used as the medium. DCs that were induced to differentiate from monocytes using the cytokines were pulsed with 20 micro-g/ml of each synthesized peptide (37 degrees C., three hours). Peptide pulsing was carried out in an AIM-V medium containing 3 micro-g/ml beta 2-microglobulin. These peptide-pulsed DCs were inactivated by X-ray irradiation (20 Gy), mixed in a 1:20 ratio with autologous CD8 positive T cells obtained by positive selection using the CD8 Positive Isolation Kit (Invitrogen) (1.5×10^4 DCs and 3×10^5 CD8 positive T cells), and cultured in a 48-well plate (Corning). Each well contained 0.5 ml of the 5% ABS/AIM-V medium, and IL-7 (R&D System) was added there (final concentration: 10 ng/ml). Two days after the start of the culture, IL-2 (Novartis) was added (final concentration: 20 IU/ml). On day 7 and day 14 of culture, the CD8 positive T cells were further stimulated with peptide-pulsed DCs. The DCs were prepared at the time of use by the same method as above. After day 21 (after three DC stimulations), IFN-gamma production against the peptide-pulsed C1R-A33 was confirmed using human interferon (IFN)-gamma enzyme-linked immunospot (ELISPOT) assay (Tanaka H et al., Br J Cancer 2001, 84(1): 94-9; Umano Y et al., Br J Cancer 2001, 84(8): 1052-7: Uchida N et al., Clin Cancer Res 2004, 10(24): 8577-86; Suda T et al., Cancer Sci 2006, 97(5): 411-9; Watanabe T et al., Cancer Sci 2005, 96(8): 498-506).
as §2

peptide-pulsed C1R-A11 [4] = test: In vitro CTL induction, IFN-gamma ELISPOT assay (HLA-A*11:01); type: cell-based, human; conditions: CD8 positive T cells of HLA-A*11:01-positive donors after three stimulations with peptide-pulsed DCs; against peptide-pulsed C1R-A11; listed as MPHOSPH1-A11-10-1546
Description: as §3, with “(HLA-A*11:01-positive)” for “(HLA-A*33:03-positive)”, “thereto” for “there”, “C1R-A11” for “C1R-A33”, “1052-7;” for “1052-7:”
(§4) Peptide-pulsed C1R-A11 (1×10^4 cells/well) was prepared as the target cell. The IFN-gamma ELISPOT assay and IFN-gamma ELISA were performed according to the assay kit manufacturer's manual.

[5] = test system: COS7 cells expressing MPHOSPH1 and HLA-A*11:01; test: IFN-gamma production of CTL clone against target cells expressing MPHOSPH1 and HLA-A*11:01; type: cell-based, African green monkey
Description: as §4
A cDNA encoding the MPHOSPH1 or HLA-A*11:01 gene was amplified by PCR. The PCR-amplified product was each incorporated into an expression vector. Either or both of the MPHOSPH1 gene-expressing vector and the HLA-A*11:01 gene-expressing vector were introduced into COS7, which is a cell line negative for HLA, using Lipofectamine 2000 (Invitrogen) following the manufacturer's recommended protocol. On the day after gene introduction, COS7 cells were detached and harvested using versene (Invitrogen), and used as the target cell for confirmation of IFN-gamma production (5×10^4 cells/well).

peptide-pulsed C1R-A11 [6] = test: IFN-gamma ELISA of CTL lines and CTL clones (HLA-A*11:01); type: cell-based, human; conditions: listed as MPHOSPH1-A11-10-1546
Description: as §1
After induction of CTLs in vitro, the CTLs were seeded onto 96 round-bottomed microtiter plates (Nalge Nunc International) at 1 cell/well or 10 cells/well. The CTLs were cultured with two types of Mitomycin C-treated human B lymphoblastoid cell lines (1×10^4 cells/well each) in a total of 150 micro-1/well 5% ABS/AIM-V medium with an anti-CD3 antibody (final concentration: 30 ng/ml) and IL-2 (final concentration: 125 IU/ml). Ten days later, 50 micro-15% ABS/AIM-V medium containing 500 IU/ml IL-2 was added to the culture. […].
as §4

| Sequence | peptide-specific IFN-gamma production of CTL clone (ELISA) (peptide-pulsed C1R-A33 [1]; CTL clone by limiting dilution, against C1R-A33 pulsed with the peptide) | IFN-gamma production by CTL line (ELISA) (peptide-pulsed C1R-A33 [1]; CTL line against C1R-A33 pulsed with the peptide) | IFN-gamma production of peptide-specific CTL clone ([2]; against COS7 cells expressing both MPHOSPH1 and HLA-A*33:03) | IFN-gamma production of peptide-specific CTL clone ([2]; against negative control COS7 cells expressing either one of MPHOSPH1 and HLA-A*33:03, listed as MPHOSPH1-A33-9-608) | peptide-specific IFN-gamma production (ELISPOT) (peptide-pulsed C1R-A33 [3]) | peptide-specific IFN-gamma production (ELISPOT) (peptide-pulsed C1R-A11 [4]) | IFN-gamma production of peptide-specific CTL clone ([5]; against COS7 cells expressing both MPHOSPH1 and HLA-A*11:01) | IFN-gamma production of peptide-specific CTL clone ([5]; against negative control COS7 cells expressing either one of MPHOSPH1 and HLA-A*11:01, listed as MPHOSPH1-A11-10-1546) | peptide-specific IFN-gamma production of CTL clone (ELISA) (peptide-pulsed C1R-A11 [6]; CTL clone by limiting dilution, against C1R-A11 pulsed with the peptide) | IFN-gamma production by CTL line (ELISA) (peptide-pulsed C1R-A11 [6]; CTL line against C1R-A11 pulsed with the peptide) |
| --- | --- | --- | --- | --- | --- | --- | --- | --- | --- | --- |
| EFTQYWAQR (a peptide derived from MPHOSPH1) [SEQ ID NO: 118] | showed a peptide-specific IFN-gamma production | CTL lines that produce IFN-gamma in a peptide-specific manner were established; also recorded: observed | showed IFN-gamma production | a significant IFN-gamma production was not shown; also recorded: a significant IFN-gamma production was not observed | Peptide-specific IFN-gamma production was observed |  |  |  |  |  |
| STSFEISRNK (a peptide derived from MPHOSPH1) [SEQ ID NO: 52] |  |  |  |  |  | Peptide-specific IFN-gamma production was observed | showed IFN-gamma production | a significant IFN-gamma production was not shown; also recorded: a significant IFN-gamma production was not observed | showed a peptide-specific IFN-gamma production | CTL lines that produce IFN-gamma in a peptide-specific manner were established; also recorded: observed |
